According to a melting point compilation (Tetko et al.; mined from patent text by program, amines drawn as free bases though some values may be those of a salt):

SMILES	melting point [°C]
O=C1CCSc2cc(F)ccc21	61 to 66
CCOC(=O)C1C(c2ccco2)C(C(=O)OCC)C(O)(C(F)(F)F)NC1(O)C(F)(F)F (stereo unspecified)	129 to 131
Cc1c(F)c(F)c(Cl)c2c1c(=O)c(C(=O)O)cn2-c1cc(N)c(F)cc1F	271 to 274
N#Cc1nn(-c2c(Cl)cc(C(F)(F)F)cc2Cl)c(Cl)c1C#CBr	153
CC(=O)c1ccc(C(=O)N2Cc3cccn3Cc3ccccc32)cc1	135 to 137
CCCOc1cc(F)cc2c1c(CCN(C)C)cn2CC	68.9 to 70.1
COc1cc(N2CCN([C@H]3CC[C@@H](c4cn(C)c5ccc(C#N)cc54)CC3)CC2)c2ncc(C)cc2c1	190 to 192
CCOC(=O)c1ccc(NCCCCCc2ccccc2)cc1	63 to 64
C#CCN(C(=O)CCl)c1c(C)nc(N(C)C)nc1C	108 to 110
COC(=O)CCC/C=C/c1nn(-c2ccc(NC(C)=O)cc2)c2c1CCC2	118 to 120
CCOc1ccc2c(C)c(CCO)c(=O)oc2c1OCC	130 to 131
CC(C)Oc1ccc([N+](=O)[O-])cc1OCCN1C(=O)c2ccccc2C1=O	132
COC(=O)C(=C(C)C)N1CC(N2C(=O)c3ccccc3C2=O)C1=O (stereo unspecified)	127 to 128
COC(=O)c1cccc(NC(=O)CC(=O)c2ccccc2)c1C(=O)OC	100 to 103
Cc1cc(F)c([N+](=O)[O-])cc1N	178
COC(=O)NCc1cccc(Br)c1	41 to 44
O=[N+]([O-])c1nccn1CC(O)CN1CCCCC1 (stereo unspecified)	108 to 109
NS(=O)(=O)c1ccc(-c2noc(-c3cnn4c(C(F)(F)F)cc(-c5ccc(Cl)cc5)nc34)n2)cc1	296
COc1ccc([N+](=O)[O-])cc1OCCCCl	85 to 87
CCCNC(=O)n1nc(Oc2ccc(C(F)(F)F)cc2[N+](=O)[O-])cc1C	50 to 51
COc1ccc(-c2c(-c3ccccc3)nn3ccccc23)nn1	203 to 205
CCCOC(=O)C1=C(C)NC(CO)=C(C(=O)OC)C1c1ccccc1C#N (stereo unspecified)	149 to 152
Cc1ccc(C(=O)NC(NC(=S)Nc2cccc(F)c2F)C(F)(F)F)cc1 (stereo unspecified)	210 to 211

SMILES	melting point [°C]
CC1(C)CC(O)CC(C)(C)N1N=Nc1ccccc1	68 to 70
Cc1ccc(S(=O)(=O)n2cc(CO)nc2C)cc1	140 to 143
CON=C(C)c1ccc(N2CC(CO)OC2=O)cc1 (stereo unspecified)	149 to 150
CC(=O)Nc1ccccc1N1CCc2cc(Cl)ccc21	136 to 138
CC(C)(C)OC(=O)Cn1ccc2cc(NC(=O)CC34CC5CC(CC(C5)C3)C4)ccc21	199
Cn1c(=O)n(CCC[C@@H](NS(=O)(=O)c2ccc(-c3ccccc3)cc2)C(=O)O)c(=O)c2ccccc21	222 to 224
CC(C)(C)OC(=O)C(=CC1C(C(=O)O)C1(C)C)OC(C)(C)C (stereo unspecified)	85
O=C1CCC(C(=O)OC2c3ccccc3C(=O)N2c2ccc3ccc(Cl)nc3n2)CC1 (stereo unspecified)	203
O=C(O)C1=CS[C@@H]2/C(=C/c3ccc4c(c3)N(Cc3ccccc3)C(=O)c3ccccc3O4)C(=O)N12	179
CCOC(=O)CCCCCCC1C(=O)NC(=O)N1CCC(O)C1CCCCC1 (stereo unspecified)	62 to 63
COc1ccc(/C=C/C(=O)C2C(=O)CC(c3ccc(OC)cc3)C([N+](=O)[O-])C2c2ccco2)cc1 (stereo unspecified)	192
COc1cc2c(cc1-n1cccc1)C(Nc1ccc(F)c(Cl)c1)=C(C#N)CN2	192 to 194
Oc1ccc(Oc2ncc(C(F)(F)F)cc2F)cc1	97
c1ccc(C(c2ccccc2)(c2ncccn2)n2ccnc2)cc1	138 to 143
Cc1nsc(NC(=O)C(C)c2ccc(O)c(N)c2)c1Cl (stereo unspecified)	222 to 223
O=c1[nH]ncn1-c1ccc(-n2ncn(-c3ccc(OCC(F)(F)C(F)F)cc3)c2=O)cc1	297 to 298
O=c1[nH]nc2c3cc(F)ccc3[nH]c(=O)n12	> 350
NC(=O)CCC(C(=O)O)N1C(=O)c2cccc(N)c2C1=O (stereo unspecified)	165 to 167
COc1cc(N)c(SCc2ccccc2)cc1OC	86 to 88
Cc1[nH]cc2c(=O)n(-c3ccc(Cl)cc3)nc-2c1-c1cccc(-n2cnnc2)c1	> 350
COc1ccc(-c2nnc3c4ccccc4c(Nc4ccc(N)cc4)nn23)cc1	295
CCOCc1nc2c(N)nc3ccccc3c2n1CCCC(C)N(OC)S(C)(=O)=O (stereo unspecified)	146 to 148
O=C(C#Cc1ccc(C(F)(F)F)cc1Cl)Nc1ccc2nc(N3CCCCC3)ccc2c1	176 to 179
